Data from US20260132129A1 (Genesis Therapeutics, Inc., priority 2022, published 2026).

Target: T1, PI3Kα H1047R (T47D cells) (Homo sapiens, UniProt P42336, H1047R)
T1 construct: endogenous in cells; host or cells: T47D cells
Experiment: PI3Kα cellular assay: pAKT HTRF in T47D cells after EGF stimulation
Type: cell-based
Details: for IC50: T47D cells (PI3Kα H1047R), pAKT S473 HTRF
In short: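 T47D cells (PIK3CA H1047R) serum-starved 16 h, then treated 1 h at 37 °C with compound (10,000 nM top, 3-fold steps to 0.5 nM). After 10 min stimulation with 20 ng/mL EGF, cells were lysed and pAKT measured by HTRF.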

[1] = selectivity of T47D (H1047R) over SKBR3 (WT) pAKT IC50
[2] = 1 hr compound, 20 ng/ml EGF 10 min
[3] = selectivity T47D (H1047R) over SKBR3 (WT), pAKT HTRF

T1 sequence (P42336 whole entry H1047R): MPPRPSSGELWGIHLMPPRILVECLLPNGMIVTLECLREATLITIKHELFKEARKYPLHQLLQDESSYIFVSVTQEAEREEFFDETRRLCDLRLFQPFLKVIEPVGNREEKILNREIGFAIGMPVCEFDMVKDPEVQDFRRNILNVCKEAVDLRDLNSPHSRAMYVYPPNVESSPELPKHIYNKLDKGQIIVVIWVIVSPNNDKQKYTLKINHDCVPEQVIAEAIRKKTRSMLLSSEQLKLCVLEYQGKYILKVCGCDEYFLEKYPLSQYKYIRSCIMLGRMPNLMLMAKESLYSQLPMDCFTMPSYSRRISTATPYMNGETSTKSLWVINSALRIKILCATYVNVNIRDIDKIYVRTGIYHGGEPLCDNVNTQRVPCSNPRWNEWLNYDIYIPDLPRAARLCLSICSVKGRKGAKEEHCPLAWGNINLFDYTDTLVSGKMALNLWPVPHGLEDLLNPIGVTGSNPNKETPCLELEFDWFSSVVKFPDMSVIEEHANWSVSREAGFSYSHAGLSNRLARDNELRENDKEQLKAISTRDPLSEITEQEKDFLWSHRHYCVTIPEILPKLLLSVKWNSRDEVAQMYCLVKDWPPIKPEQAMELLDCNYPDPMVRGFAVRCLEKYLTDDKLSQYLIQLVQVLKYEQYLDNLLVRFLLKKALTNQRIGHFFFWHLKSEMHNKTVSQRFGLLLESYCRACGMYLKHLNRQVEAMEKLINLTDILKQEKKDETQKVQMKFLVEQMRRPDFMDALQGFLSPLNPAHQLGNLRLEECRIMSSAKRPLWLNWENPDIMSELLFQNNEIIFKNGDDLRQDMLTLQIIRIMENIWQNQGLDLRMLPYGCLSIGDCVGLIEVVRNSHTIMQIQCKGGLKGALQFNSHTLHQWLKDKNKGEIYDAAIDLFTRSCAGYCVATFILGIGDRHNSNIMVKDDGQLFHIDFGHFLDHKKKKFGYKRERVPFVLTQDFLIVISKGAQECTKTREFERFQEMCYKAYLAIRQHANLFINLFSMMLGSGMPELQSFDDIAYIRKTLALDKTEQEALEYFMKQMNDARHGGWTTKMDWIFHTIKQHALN
T1 sequence (P27986 whole entry partner): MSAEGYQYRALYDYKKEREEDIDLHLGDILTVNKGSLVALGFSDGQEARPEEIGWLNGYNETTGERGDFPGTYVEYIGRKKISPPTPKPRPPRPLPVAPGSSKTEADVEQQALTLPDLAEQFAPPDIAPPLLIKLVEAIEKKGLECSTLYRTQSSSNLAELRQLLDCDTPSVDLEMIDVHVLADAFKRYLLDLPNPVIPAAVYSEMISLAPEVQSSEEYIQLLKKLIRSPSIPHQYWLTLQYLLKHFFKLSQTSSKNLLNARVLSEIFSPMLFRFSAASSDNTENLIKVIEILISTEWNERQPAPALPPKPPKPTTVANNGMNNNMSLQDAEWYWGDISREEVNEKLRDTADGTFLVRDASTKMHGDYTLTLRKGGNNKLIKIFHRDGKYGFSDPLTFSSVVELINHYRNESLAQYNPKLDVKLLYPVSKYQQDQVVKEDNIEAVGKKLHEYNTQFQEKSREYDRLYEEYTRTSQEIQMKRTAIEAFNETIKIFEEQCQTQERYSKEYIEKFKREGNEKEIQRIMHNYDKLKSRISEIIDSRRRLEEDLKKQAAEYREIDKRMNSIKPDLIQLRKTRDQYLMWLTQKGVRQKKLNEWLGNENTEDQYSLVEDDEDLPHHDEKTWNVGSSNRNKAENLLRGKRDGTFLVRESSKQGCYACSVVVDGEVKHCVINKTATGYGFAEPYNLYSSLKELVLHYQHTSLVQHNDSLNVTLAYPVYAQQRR

| Structure (SMILES) | IC50 (EGF stimulation) [nM] | T47D pAKT S473 HTRF IC50 (H1047R): T47D (H1047R) selectivity over SKBR3 (WT) [1] | IC50 [2] [nM] | T47D pAKT S473 HTRF IC50 (H1047R): T47D (H1047R) selectivity over SKBR3 (WT) [3] |
| --- | --- | --- | --- | --- |
| CC(=O)N=S(C)(=O)c1ccccc1N[C@H](C)c1cc(C)cn2c(=O)cc(N3CCOCC3)nc12 (some centres unmarked) [Compound 827] | > 2000 | C (C denotes ≤5-fold) |  |  |
| Cc1cc([C@H](C)Nc2ccccc2-c2ccnnc2)c2nc(N3Cc4ccccc4C3)c(C)c(=O)n2c1 [Compound 909] | > 2000 | C (C denotes ≤5-fold) |  |  |
| Cc1cc([C@H](C)Nc2ccccc2)c2nc(-c3cnc4[nH]nc(-c5ccccc5)c4c3)cc(=O)n2c1 [Compound 266] |  |  | > 2000 | C (C denotes ≤5-fold) |
| Cc1cc([C@@H](C)Nc2ccccc2C(=O)O)c2nc(-c3ccc4sc(=O)[nH]c4c3)cc(=O)n2c1 (single isomer, unassigned) [Compound 593] |  |  | < 100 | A (A denotes >20-fold) |
| Cc1cc([C@@H](C)Nc2ccccc2S(N)(=O)=O)c2nc([C@H]3CCCN(CC(F)F)C3)c(C)c(=O)n2c1 [Compound 1310] | > 2000 |  |  | C (C denotes ≤5-fold) |
| Cc1cc([C@H](C)Nc2ccccc2S(N)(=O)=O)c2nc(N3CCOCC3)cc(=O)n2c1 [Compound 152] |  |  | 500 to 2000 | B (B denotes 20-fold≥value>5-fold) |
| Cc1cc([C@H](C)Nc2ccccc2C(=O)O)c2nc(-c3ccc4c(c3)c(C#N)nn4C3CC3)c(C)c(=O)n2c1 [Compound 1049] | > 2000 | C (C denotes ≤5-fold) |  |  |
| CCN1CCN(Cc2ccccc2-c2cc(=O)n3cc(C)cc(C(C)Nc4ccccc4C(=O)O)c3n2)CC1 (centres unmarked) [Compound 229] |  |  | > 2000 | C (C denotes ≤5-fold) |
| Cc1cc([C@H](C)Nc2cccc3c2C(=O)NCC3)c2nc(N3CCOCC3)cc(=O)n2c1 [Compound 714] |  | C (C denotes ≤5-fold) |  |  |
| Cc1cc([C@@H](C)Nc2ccccc2C(=O)O)c2nc(-c3ccc(-c4ccc5c(c4)CCO5)c(F)c3)c(C)c(=O)n2c1 [Compound 1268] | < 100 |  |  | A (A denotes >20-fold) |
| Cc1cc(C(C)Nc2cccnc2C(=O)O)c2nc(-c3cccc(F)c3)c(C)c(=O)n2c1 (centres unmarked) [Compound 1223] | < 100 |  |  | A (A denotes >20-fold) |
| Cc1cc([C@@H](C)Nc2ccccc2C(=O)O)c2nc(C3CCOCC3)c(C)c(=O)n2c1 [Compound 1055] | 100 to 500 | A (A denotes >20-fold) |  |  |
| Cc1cc([C@H](C)Nc2ccccc2C(=O)O)c2nc([C@H]3CCOC3)cc(=O)n2c1 [Compound 539] |  |  | 500 to 2000 | B (B denotes 20-fold≥value>5-fold) |
| Cc1cc([C@H](C)Nc2ccccc2C(=O)O)c2nc(-c3cc(C)c(F)c(C)c3)cc(=O)n2c1 [Compound 663] | > 2000 | C (C denotes ≤5-fold) |  |  |
| Cc1cc([C@@H](C)Nc2ccccc2C(=O)O)c2nc(-c3ccc(C#N)nc3)c(C)c(=O)n2c1 (single isomer, unassigned) [Compound 975] | < 100 | A (A denotes >20-fold) |  |  |
| CONC(=O)c1ccc(-c2cc(=O)n3cc(C)cc([C@H](C)Nc4ccccc4C(=O)O)c3n2)cc1 [Compound 486] |  |  | 100 to 500 | A (A denotes >20-fold) |
| Cc1cc([C@H](C)Nc2ccccc2S(N)(=O)=O)c2nc(N3Cc4ccccc4C3)cc(=O)n2c1 (single isomer, unassigned) [Compound 606] |  |  | > 2000 | C (C denotes ≤5-fold) |
| Cc1cc([C@@H](C)Nc2ccccc2C(=O)O)c2nc(C3CCN(S(N)(=O)=O)CC3)cc(=O)n2c1 [Compound 755] | > 2000 | C (C denotes ≤5-fold) |  |  |
| Cc1cc(C(C)Nc2ccccc2C(=O)O)c2nc(N3C[C@H](C)C[C@H](C(F)F)C3)cc(=O)n2c1 (some centres unmarked) [Compound 781] | 100 to 500 | A (A denotes >20-fold) |  |  |
| Cc1cc([C@H](C)Nc2ccccc2C(=O)O)c2nc([C@H]3CCCC(CC(F)F)C3)c(C)c(=O)n2c1 (some centres unmarked) [Compound 1331] |  |  |  | C (C denotes ≤5-fold) |
| Cc1cc(C(C)Nc2ccccc2C(=O)O)c2nc(-c3cnc4c(c3)c(C)nn4C)c(C)c(=O)n2c1 (centres unmarked) [Compound 1411, 2-((1-(2-(1,3-dimethyl-1H-pyrazolo[3,4-b]pyridin-5-yl)-3,7-dimethyl-4-oxo-4H-pyrido[1,2-a]pyrimidin-9-yl)ethyl)amino)benzoic acid] | < 100 |  |  | A (A denotes >20-fold) |

| Structure (SMILES) | IC50 (EGF stimulation) [nM] | T47D pAKT S473 HTRF IC50 (H1047R): T47D (H1047R) selectivity over SKBR3 (WT) [1] | IC50 [2] [nM] | T47D pAKT S473 HTRF IC50 (H1047R): T47D (H1047R) selectivity over SKBR3 (WT) [3] |
| --- | --- | --- | --- | --- |
| Cc1cc([C@H](C)Nc2ccccc2C(=O)O)c2nc(-c3ccc(C4CCOCC4)nc3)c(C)c(=O)n2c1 [Compound 1147] | > 2000 |  |  | C (C denotes ≤5-fold) |
| CC(=O)NS(=O)(=O)c1ccccc1N[C@@H](C)c1cc(C)cn2c(=O)c(C)c(-c3ccc4c(c3)CC(F)(F)C4)nc12 [Compound 1040] |  | C (C denotes ≤5-fold) |  |  |
| Cc1cc(C(C)NC2CCN(S(=O)(=O)N(C)C)C2)c2nc(N3Cc4ccccc4C3)cc(=O)n2c1 (centres unmarked) [Compound 834] | > 2000 | C (C denotes ≤5-fold) |  |  |
| Cc1cc(C(C)Nc2ccccc2C(=O)O)c2nc(-c3ccncc3)cc(=O)n2c1 (single isomer, unassigned) [Compound 268] |  |  | > 2000 | C (C denotes ≤5-fold) |
| Cc1cc(C(C)Nc2ccccc2C(=O)O)c2nc(N3CCC4(CC3)CNC4=O)cc(=O)n2c1 (centres unmarked) [Compound 491] |  |  | > 2000 | C (C denotes ≤5-fold) |
| Cc1cc(C(C)Nc2ccccc2C(=O)O)c2nc(-c3ccc4c(c(N)nn4C)c3C)c(C)c(=O)n2c1 (centres unmarked) [Compound 720] | 500 to 2000 | B (B denotes 20-fold≥value>5-fold) |  |  |
| Cc1cc(C(C)Oc2ccccc2C(=O)O)c2nc(-c3cccc(F)c3)c(C)c(=O)n2c1 (centres unmarked) [Compound 1337] |  |  |  | C (C denotes ≤5-fold) |
| Cc1cc([C@H](C)Nc2ccccc2-c2ccnnc2)c2nc(N3Cc4ccccc4C3)c(C)c(=O)n2c1 (single isomer, unassigned) [Compound 848] | < 100 | A (A denotes >20-fold) |  |  |
| Cc1cc([C@H](C)Nc2ccccc2C(=O)O)c2nc(-c3ccc4c(c3)c(C)cn4C)c(C)c(=O)n2c1 [Compound 903] | 500 to 2000 | B (B denotes 20-fold≥value>5-fold) |  |  |
| Cc1cc([C@@H](C)Nc2ccccc2C(=O)NS(C)(=O)=O)c2nc(N3CCOCC3)cc(=O)n2c1 [Compound 155] |  |  | > 2000 | C (C denotes ≤5-fold) |
| Cc1cc([C@H](C)Nc2ccccc2C(=O)O)c2nc(-c3ccc4c(ccn4CC(N)=O)c3)cc(=O)n2c1 [Compound 741] |  | C (C denotes ≤5-fold) |  |  |
| CNC(=O)C#Cc1ccc(-c2nc3c([C@@H](C)Nc4ccccc4C(=O)O)cc(C)cn3c(=O)c2C)cc1F [Compound 1264] | < 100 |  |  | A (A denotes >20-fold) |
| Cc1cc([C@H](C)Nc2ccccc2C(=O)O)c2nc(C3CCN(S(N)(=O)=O)CC3)cc(=O)n2c1 [Compound 756] | > 2000 | C (C denotes ≤5-fold) |  |  |
| CC(=O)N[C@H]1CCCC(c2cc(=O)n3cc(C)cc(C(C)Nc4ccccc4C(=O)O)c3n2)C1 (some centres unmarked) [Compound 580] |  |  |  | C (C denotes ≤5-fold) |
| Cc1cc(C(C)Nc2ccccc2C(=O)O)c2nc(N3CC4(CCOCC4)C3)c(C)c(=O)n2c1 (centres unmarked) [Compound 904] | 100 to 500 | A (A denotes >20-fold) |  |  |
| Cc1cc(C(C)Nc2ccccc2C(=O)O)c2nc(-c3ccncc3)cc(=O)n2c1 (single isomer, unassigned) [Compound 269] |  |  | < 100 | A (A denotes >20-fold) |
| Cc1cc(C(C)Nc2ccccc2C(=O)O)c2nc(-c3cnc4[nH]nc(-c5ccccc5)c4c3)cc(=O)n2c1 (centres unmarked) [Compound 351] |  |  | > 2000 | C (C denotes ≤5-fold) |
| Cc1cc([C@H](C)Nc2ccccc2C(=O)O)c2nc(-c3ccc(C4CN(C)C4)nc3)c(C)c(=O)n2c1 [Compound 1343] |  |  |  | C (C denotes ≤5-fold) |
| Cc1cc([C@@H](C)Nc2ccccc2C(=O)O)c2nc(C3CCC(C)(C)CC3)cc(=O)n2c1 [Compound 623, (R)-2-((1-(2-(4,4-dimethylcyclohexyl)-7-methyl-4-oxo-4H-pyrido[1,2-a]pyrimidin-9-yl)ethyl)amino)benzoic acid] |  |  | < 100 | A (A denotes >20-fold) |
| CONC(=O)c1ccc(-c2cc(=O)n3cc(C)cc(C(C)NC4=CC=CCC4C(=O)O)c3n2)c(OC)c1 (centres unmarked) [Compound 299] |  |  | > 2000 | C (C denotes ≤5-fold) |
| COc1cc(-c2nc3c([C@@H](C)Nc4ccccc4C(=O)O)cc(C)cn3c(=O)c2C)ccn1 [Compound 1101] | < 100 |  |  | A (A denotes >20-fold) |
